Measurements: ChEMBL document CHEMBL1152778, “Design, synthesis, and biological evaluation of (2R,alphaS)-3,4-dihydro-2-[3-(1,1,2,2-tetrafluoroethoxy)phenyl]-5-[3-(trifluoromethoxy)-phenyl]-alpha-(trifluoromethyl)-1(2H)-quinolineethanol as potent and orally active cholesteryl ester transfer protein inhibitor” (J Med Chem, 2009)
The source made the active and inactive calls. No cut-off for these calls is given here.

Key:
[1] = Inhibition of CETP-mediated transfer of cholesteryl ester to LDL/VLDL in hamster plasma by Roar assay; assay type: cell-free; details: Cricetinae
[2] = tested on: Hamster; assay: Increase in HDLC to LDLC ratio in high-fat fed hamster model at 3 to 30 mg/kg, po for 5 days measured after 2 hrs of last dose; assay type: functional, Cricetinae; details: dose mg/kg 3-30
[3] = Oral bioavailability in rat at 10 mg/kg; assay type: ADME, organism-based; details: in vivo
[4] = Plasma concentration in normal chow diet-fed cynomolgus monkey at 10 mg/kg, po for 5 days; assay type: ADME, organism-based, Macaca fascicularis; design: dose 10 mg/kg, route oral
[5] = tested on: Cynomolgus monkey; assay: Ex vivo inhibition of CETP in normal chow diet-fed cynomolgus monkey at 3 mg/kg, po for 5 days by Roar assay; assay type: functional; details: Macaca fascicularis, 120 h
[6] = biological target: T1, Phosphatidylcholine-sterol acyltransferase (Homo sapiens) (UniProt P04180); assay: Inhibition of LCAT activity in human plasma assessed as change in cholesteryl ester/free cholesterol ratio by cell based assay
T1 sequence (whole entry): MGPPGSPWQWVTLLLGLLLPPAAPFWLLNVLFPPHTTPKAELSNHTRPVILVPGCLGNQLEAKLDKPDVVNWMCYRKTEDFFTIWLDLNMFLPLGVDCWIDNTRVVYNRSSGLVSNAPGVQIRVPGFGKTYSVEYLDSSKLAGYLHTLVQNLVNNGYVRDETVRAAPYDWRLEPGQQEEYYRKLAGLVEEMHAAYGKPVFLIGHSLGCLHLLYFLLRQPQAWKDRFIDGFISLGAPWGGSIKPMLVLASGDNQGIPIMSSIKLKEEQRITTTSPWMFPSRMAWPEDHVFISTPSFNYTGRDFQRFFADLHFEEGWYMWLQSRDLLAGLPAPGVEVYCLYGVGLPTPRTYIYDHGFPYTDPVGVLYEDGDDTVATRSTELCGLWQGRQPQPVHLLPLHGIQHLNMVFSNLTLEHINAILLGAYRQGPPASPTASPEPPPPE

[7] = Inhibition of CETP-mediated transfer of cholesteryl ester to LDL/VLDL in monkey plasma by Roar assay; assay type: cell-free; details: Macaca mulatta
[8] = tested on: Cynomolgus monkey; assay: Increase in HDLC level in normal chow diet-fed cynomolgus monkey at 3 mg/kg, po for 5 days measured after 10 hrs of last dose; assay type: functional, Macaca fascicularis
[9] = biological target: T2, Cholesteryl ester transfer protein (Homo sapiens, UniProt P11597); assay: Inhibition of CETP-mediated transfer of [3H]cholesteryl ester from HDL in human plasma after 18 hrs; assay type: cell-free
T2 sequence (P11597 whole entry): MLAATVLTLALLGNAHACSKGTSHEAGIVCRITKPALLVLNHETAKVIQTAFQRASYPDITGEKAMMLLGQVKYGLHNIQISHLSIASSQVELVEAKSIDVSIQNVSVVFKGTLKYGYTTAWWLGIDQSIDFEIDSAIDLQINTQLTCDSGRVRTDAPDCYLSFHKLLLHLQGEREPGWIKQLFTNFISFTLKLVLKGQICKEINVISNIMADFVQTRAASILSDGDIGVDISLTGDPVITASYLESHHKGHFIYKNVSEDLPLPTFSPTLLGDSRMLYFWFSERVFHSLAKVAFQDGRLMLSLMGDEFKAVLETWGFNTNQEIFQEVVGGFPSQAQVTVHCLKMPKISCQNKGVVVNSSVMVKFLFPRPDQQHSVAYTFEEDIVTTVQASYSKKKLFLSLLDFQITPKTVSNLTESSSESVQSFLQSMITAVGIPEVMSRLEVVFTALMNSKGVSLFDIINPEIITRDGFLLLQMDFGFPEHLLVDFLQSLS

[10] = tested on: Mus musculus; assay: Increase in HDLC level in normal chow diet-fed human CETP transgenic mouse model at 3 mg/kg, po for 5 days measured after 2 hrs of last dose; assay type: functional, organism-based; design: dose 3 mg/kg
[11] = Inhibition of CETP-mediated transfer of cholesteryl ester to LDL/VLDL in rabbit plasma by Roar assay; assay type: cell-free; details: Oryctolagus cuniculus
[12] = tested on: Cynomolgus monkey; assay: Ex vivo inhibition of CETP in normal chow diet-fed cynomolgus monkey at 30 mg/kg, po for 5 days by Roar assay; assay type: functional; details: Macaca fascicularis, 120 h
[13] = Tmax in rat at 2 to 3 mg/kg, iv and 10 mg/kg, po; assay type: ADME, organism-based; details: in vivo
[14] = tested on: Hamster; assay: Increase in HDLC level in high-fat fed hamster model at 30 mg/kg, po for 5 days measured after 2 hrs of last dose; assay type: functional, Cricetinae
[15] = Half life in rat at 2 to 3 mg/kg, iv and 10 mg/kg, po; assay type: ADME, organism-based; details: in vivo
[16] = biological target: T3, Hepatic triacylglycerol lipase (Homo sapiens) (UniProt P11150); assay: Inhibition of hepatic lipase activity assessed as release of free fatty acid from hydrolysis of VLDL by cell based assay
T3 sequence (whole entry): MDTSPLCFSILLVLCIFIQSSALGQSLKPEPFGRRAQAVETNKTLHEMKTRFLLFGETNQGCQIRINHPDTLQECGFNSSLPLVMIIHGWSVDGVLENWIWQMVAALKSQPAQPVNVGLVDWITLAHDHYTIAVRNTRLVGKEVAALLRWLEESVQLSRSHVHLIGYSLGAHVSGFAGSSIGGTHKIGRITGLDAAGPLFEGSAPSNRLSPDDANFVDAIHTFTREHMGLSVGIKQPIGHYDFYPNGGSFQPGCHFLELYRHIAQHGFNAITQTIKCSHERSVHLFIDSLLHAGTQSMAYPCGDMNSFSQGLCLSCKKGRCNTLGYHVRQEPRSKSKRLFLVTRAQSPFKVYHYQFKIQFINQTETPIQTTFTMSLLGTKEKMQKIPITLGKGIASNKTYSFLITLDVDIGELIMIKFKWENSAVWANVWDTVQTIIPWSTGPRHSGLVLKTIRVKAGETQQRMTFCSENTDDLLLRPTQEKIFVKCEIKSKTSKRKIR

[17] = Plasma concentration in normal chow diet-fed cynomolgus monkey at 30 mg/kg, po for 5 days; assay type: ADME, organism-based, Macaca fascicularis; design: dose 30 mg/kg, route oral
[18] = Plasma concentration in normal chow diet-fed cynomolgus monkey at 3 mg/kg, po for 5 days; assay type: ADME, organism-based, Macaca fascicularis; design: dose 3 mg/kg, route oral
[19] = biological target: T4, Endothelial lipase (Homo sapiens) (UniProt Q9Y5X9); assay: Inhibition of endothelial lipase by cell based assay
T4 sequence (whole entry): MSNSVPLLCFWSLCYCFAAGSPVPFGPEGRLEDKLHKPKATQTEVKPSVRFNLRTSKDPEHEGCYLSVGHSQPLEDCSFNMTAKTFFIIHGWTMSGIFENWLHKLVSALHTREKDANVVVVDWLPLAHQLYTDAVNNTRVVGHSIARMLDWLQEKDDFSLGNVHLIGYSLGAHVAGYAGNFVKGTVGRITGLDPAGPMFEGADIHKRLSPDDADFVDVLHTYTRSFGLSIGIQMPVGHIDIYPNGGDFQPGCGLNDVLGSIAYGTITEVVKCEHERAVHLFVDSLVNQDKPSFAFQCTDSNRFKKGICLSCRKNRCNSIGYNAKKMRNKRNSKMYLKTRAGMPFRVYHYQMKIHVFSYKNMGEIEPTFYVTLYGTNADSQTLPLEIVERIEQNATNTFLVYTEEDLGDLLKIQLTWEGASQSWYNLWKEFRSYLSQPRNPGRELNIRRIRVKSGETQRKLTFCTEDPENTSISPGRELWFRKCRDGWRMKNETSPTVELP

[20] = Clearance in rat at 2 to 3 mg/kg, iv and 10 mg/kg, po; assay type: ADME, organism-based; details: in vivo

- IC50 [1]: 100 nM
- bioavailability [3]: 31%
- concentration at 120 h [4]: 2700 nM
- Activity [6]: inactive
- IC50 [7]: 1400 nM
- IC50 [9]: 200 nM
- IC50 [11]: 3500 nM
- Tmax [13]: 6 h
- half-life [15]: 28 h
- Activity [16]: inactive
- concentration at 120 h [17]: 5900 nM
- concentration at 120 h [18]: 400 nM
- Activity [19]: inactive
- clearance [20]: 1.8 mL/min/kg
Compound: O[C@@H](CN1c2cccc(-c3cccc(OC(F)(F)F)c3)c2CC[C@@H]1c1cccc(OC(F)(F)C(F)F)c1)C(F)(F)F
- Activity [2]: 4.6
- inhibition in vivo at 3 mg/kg [5]: 11%
- Activity [8]: 4%
- Activity [10]: Active
- inhibition in vivo at 30 mg/kg [12]: 67%
- Activity [14]: 40%
